Here are results for five molecules from US20100029752A1, “NOVEL COMPOUNDS, PHARMACEUTICAL COMPOSITIONS CONTAINING SAME, AND METHODS OF USE FOR SAME” (priority 2005, published 2010).

In brackets after ≈: the same amount, converted by molar mass.

Assay [1] deals with MCF-7 human breast cancer cells. Kind of assay: XTT cytotoxicity assay (M / MCF7). It counts as cell-based. The conditions noted are these: MCF-7 cells, 72 hours. As for the experimental part: The XTT assay is a non-radioactive alternative for the [^51Cr] release cytotoxicity assay. XTT is a tetrazolium salt that is reduced to a formazan dye only by metabolically active, viable cells. The reduction of XTT is measured spectrophotometrically as OD490-OD650. To measure the cytotoxicity of specific compounds against cancer cells, 9×10^3 MCF-7 human breast cancer cells, obtained from the American Type Culture Collection are plated per well in 96 well plates in DMEM medium with 10% fetal bovine serum, insulin, penicillin, and streptomycin. Following overnight culture at 37° C. and 5% CO2, the compounds to be tested, dissolved in DMSO, are added to the wells in 1 μl volume at the following concentrations: 80, 40, 20, 10, 5, 2.5, 1.25, and 0.625 μg/ml in triplicate. Additional concentrations are tested if required. 1 μl of DMSO is added to triplicate wells are the vehicle control. C75 is run at 40, 20, […], and 5 μg/ml in triplicate as positive controls. After 72 hours of incubation, cells are incubated for 4 hours with the XTT reagent as per manufacturer's instructions (Cell Proliferation Kit 11 (XTT) Roche). Plates are read at OD490 and OD650 on a Molecular Devices SpectraMax Plus Spectrophotometer. Three wells containing the XTT reagent without cells serve as the plate blank. XTT data are reported as OD490-OD650. Averages and standard error of the mean are computed using SOFTmax Pro software ([…]). The IC50 for the compounds is defined as the concentration of drug leading to a 50% reduction in OD490-OD650 compared to controls. The OD490-OD650 are computed by the SOFTmax PRO software (Molecular Devices) for each compound concentration. IC50 is calculated by linear regression, plotting the FAS activity as percent of control versus drug concentrations. Linear regression, best-fit line, r^2, and 95% confidence intervals are determined using Prism Version 3.0 (Graph Pad Software).
Background: Formazan colour is commonly taken as a measure of viable cells.

Another assay deals with T1, FAS (Homo sapiens, UniProt P49327).
T1 construct: Human FAS was purified from cultured ZR-75-1 human breast cancer cells; endogenous in cells
T1 sequence (P49327 whole entry): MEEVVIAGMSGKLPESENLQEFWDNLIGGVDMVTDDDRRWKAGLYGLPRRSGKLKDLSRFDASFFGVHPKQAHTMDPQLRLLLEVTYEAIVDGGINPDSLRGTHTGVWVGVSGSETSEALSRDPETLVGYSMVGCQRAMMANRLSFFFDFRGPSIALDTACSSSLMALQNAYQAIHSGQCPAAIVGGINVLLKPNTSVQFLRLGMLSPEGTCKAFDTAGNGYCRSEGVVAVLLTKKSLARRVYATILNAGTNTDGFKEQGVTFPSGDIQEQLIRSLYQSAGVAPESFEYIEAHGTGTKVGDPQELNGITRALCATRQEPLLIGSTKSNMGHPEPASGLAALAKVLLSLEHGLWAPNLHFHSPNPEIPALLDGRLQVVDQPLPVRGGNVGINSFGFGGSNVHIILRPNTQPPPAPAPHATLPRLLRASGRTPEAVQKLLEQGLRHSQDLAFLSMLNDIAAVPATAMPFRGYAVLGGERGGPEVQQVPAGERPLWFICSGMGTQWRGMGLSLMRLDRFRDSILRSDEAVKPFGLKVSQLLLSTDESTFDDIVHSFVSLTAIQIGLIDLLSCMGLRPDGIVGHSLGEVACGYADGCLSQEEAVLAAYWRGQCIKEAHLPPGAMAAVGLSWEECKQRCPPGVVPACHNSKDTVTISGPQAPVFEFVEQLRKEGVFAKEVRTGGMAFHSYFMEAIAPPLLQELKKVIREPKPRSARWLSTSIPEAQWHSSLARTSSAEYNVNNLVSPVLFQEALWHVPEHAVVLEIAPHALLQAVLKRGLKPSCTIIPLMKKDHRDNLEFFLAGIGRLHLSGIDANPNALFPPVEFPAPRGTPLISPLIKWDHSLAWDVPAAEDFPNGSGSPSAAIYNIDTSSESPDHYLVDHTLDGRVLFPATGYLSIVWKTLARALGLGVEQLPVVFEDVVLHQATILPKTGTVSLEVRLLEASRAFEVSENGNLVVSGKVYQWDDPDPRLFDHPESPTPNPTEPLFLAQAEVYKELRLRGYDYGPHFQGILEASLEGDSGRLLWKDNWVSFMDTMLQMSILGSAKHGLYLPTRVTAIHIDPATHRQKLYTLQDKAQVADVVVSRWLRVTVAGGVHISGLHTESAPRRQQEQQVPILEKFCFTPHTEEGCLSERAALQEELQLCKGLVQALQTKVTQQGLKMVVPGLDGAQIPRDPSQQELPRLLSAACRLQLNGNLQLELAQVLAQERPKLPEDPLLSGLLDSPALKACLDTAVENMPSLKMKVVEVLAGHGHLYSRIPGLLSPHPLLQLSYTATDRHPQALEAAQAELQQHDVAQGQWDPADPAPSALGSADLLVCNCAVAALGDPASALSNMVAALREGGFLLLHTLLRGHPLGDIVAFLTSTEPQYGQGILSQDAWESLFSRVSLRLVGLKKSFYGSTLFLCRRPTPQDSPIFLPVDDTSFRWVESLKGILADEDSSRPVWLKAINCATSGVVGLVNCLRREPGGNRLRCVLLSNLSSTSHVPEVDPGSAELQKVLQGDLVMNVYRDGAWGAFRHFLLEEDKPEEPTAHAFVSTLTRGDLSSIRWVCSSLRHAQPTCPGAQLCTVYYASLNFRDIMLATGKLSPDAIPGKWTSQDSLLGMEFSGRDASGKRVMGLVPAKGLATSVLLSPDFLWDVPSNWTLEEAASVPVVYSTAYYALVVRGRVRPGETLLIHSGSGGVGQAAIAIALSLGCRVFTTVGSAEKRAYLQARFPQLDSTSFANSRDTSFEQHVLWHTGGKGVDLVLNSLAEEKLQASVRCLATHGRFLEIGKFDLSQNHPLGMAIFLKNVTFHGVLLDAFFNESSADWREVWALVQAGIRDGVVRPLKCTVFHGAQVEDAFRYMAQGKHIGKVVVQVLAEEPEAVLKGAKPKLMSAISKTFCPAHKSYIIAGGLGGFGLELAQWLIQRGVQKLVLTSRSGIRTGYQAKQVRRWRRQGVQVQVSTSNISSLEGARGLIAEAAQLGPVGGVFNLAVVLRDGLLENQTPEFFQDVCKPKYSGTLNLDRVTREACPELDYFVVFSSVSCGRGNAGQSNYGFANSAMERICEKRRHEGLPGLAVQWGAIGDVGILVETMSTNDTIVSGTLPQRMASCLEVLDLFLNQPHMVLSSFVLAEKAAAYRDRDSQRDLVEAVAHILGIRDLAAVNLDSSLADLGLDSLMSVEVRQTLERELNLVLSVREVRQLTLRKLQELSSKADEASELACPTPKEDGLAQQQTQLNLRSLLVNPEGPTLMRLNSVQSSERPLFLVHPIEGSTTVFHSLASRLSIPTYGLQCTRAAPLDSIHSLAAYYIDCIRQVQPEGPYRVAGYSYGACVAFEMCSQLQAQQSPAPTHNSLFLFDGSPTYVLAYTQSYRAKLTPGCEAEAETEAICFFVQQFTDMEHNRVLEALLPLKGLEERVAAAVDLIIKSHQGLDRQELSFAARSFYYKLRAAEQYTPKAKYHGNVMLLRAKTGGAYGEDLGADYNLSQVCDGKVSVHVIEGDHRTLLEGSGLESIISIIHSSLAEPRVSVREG
Description: FAS (IC50) marked (SB). Type of assay: biochemical. The conditions noted are these: value marked (SB), not defined.

A further assay deals with OV. Kind of assay: XTT cytotoxicity assay (OV). Type of assay: cell-based. The conditions noted are these: (OV) cells. The method, then: The XTT assay is a non-radioactive alternative for the [^51Cr] release cytotoxicity assay. XTT is a tetrazolium salt that is reduced to a formazan dye only by metabolically active, viable cells. The reduction of XTT is measured spectrophotometrically as OD490-OD650. After 72 hours of incubation, cells are incubated for 4 hours with the XTT reagent as per manufacturer's instructions (Cell Proliferation Kit 11 (XTT) Roche). Plates are read at OD490 and OD650 on a Molecular Devices SpectraMax Plus Spectrophotometer. Three wells containing the XTT reagent without cells serve as the plate blank. XTT data are reported as OD490-OD650. Averages and standard error of the mean are computed using SOFTmax Pro software (Molecular Dynamics). The IC50 for the compounds is defined as the concentration of drug leading to a 50% reduction in OD490-OD650 compared to controls. The OD490-OD650 are computed by the SOFTmax PRO software (Molecular Devices) for each compound concentration. IC50 is calculated by linear regression, plotting the FAS activity as percent of control versus drug concentrations. Linear regression, best-fit line, r^2, and 95% confidence intervals are determined using Prism Version 3.0 (Graph Pad Software).

Assay [2] concerns fatty acid synthesis pathway activity in MCF-7 human breast cancer cells. Kind of assay: [14C]acetate incorporation into total lipids. It counts as cell-based. The conditions noted are these: Homo sapiens, MCF7; MCF-7 cells, [14C]acetate into lipids. The method, then: This assay measures the incorporation of [^14C]acetate into total lipids and is a measure of fatty acid synthesis pathway activity in vitro. It is utilized to measure inhibition of fatty acid synthesis in vitro.
MCF-7 human breast cancer cells cultured as above, are plated at 5×10^4 cells per well in 24-well plates. Following overnight incubation, the compounds to be tested, solubilized in DMSO, are added at 5, 10, and 20 μg/ml in triplicate, with lower concentrations tested if necessary. DMSO is added to triplicate wells for a vehicle control. C75 is run at 5 and 10 μg/ml in triplicate as positive controls. After 4 hours of incubation, 0.25 μCi of [^14C]acetate (10 μl volume) is added to each well.
After 2 hours of additional incubation, medium is aspirated from the wells and 800 μl of chloroform:methanol (2:1) and 700 μl of 4 mM MgCl2 is added to each well. Contents of each well are transferred to 1.5 Eppendorf tubes, and spun at full-speed for 2 minutes in a high-speed Eppendorf Microcentrifuge 5415D. After removal of the aqueous (upper) layer, an additional 700 μl of chloroform:methanol (2:1) and 500 μl of 4 mM MgCl2 are added to each tube and then centrifuged for 1 minutes as above. The aqueous layer is removed with a Pasteur pipette and discarded. An additional 400 μl of chloroform:methanol (2:1) and 200 μl of 4 mM MgCl2 are added to each tube, then centrifuged and aqueous layer is discarded. The lower (organic) phase is transferred into a scintillation vial and dried at 40° C. under N2 gas. Once dried, 3 ml of scintillant (APB #NBC5104) is added and vials are counted for ^14C. The Beckman Scintillation counter calculates the average cpm values for triplicates.
The IC50 for the compounds is defined as the concentration of drug leading to a 50% reduction in [^14C]acetate incorporation into lipids compared to controls. This is determined by plotting the average cpm for each inhibitor concentration tested, performing linear regression and computing the best-fit line, r^2 values, and 95% confidence intervals. The average cpm values are computed by the Beckman scintillation counter (Model LS6500) for each compound concentration. Computation of linear regression, best-fit line, r^2, and 95% confidence intervals are calculated using Prism Version 3.0 (Graph Pad Software).

In assay [3] the test system is MCF-7 human breast cancer cells. Kind of assay: Crystal violet cell growth assay. Type of assay: cell-based. The conditions noted are these: MCF7, MCF-7 cells, 72 hours, read-out: Cr. Violet (IC50). The method, then: The crystal violet assay measures cell growth but not cytotoxicity. This assay employs crystal violet staining of fixed cells in 96-well plates with subsequent solubilization and measurement of OD490 on a spectrophotometer. The OD490 corresponds to cell growth per unit time measured. Cells are treated with the compounds of interest or vehicle controls and IC50 for each compound is computed.
To measure the cytotoxicity of specific compounds against cancer cells, 5×10^4 MCF-7 human breast cancer cells, obtained from the American Type Culture Collection are plated per well in 24 well plates in DMEM medium with 10% fetal bovine serum, penicillin, and streptomycin. Following overnight culture at 37° C. and 5% CO2, the compounds to be tested, dissolved in DMSO, are added to the wells in 1 μl volume at the following concentrations: 50, 40, 30, 20, and 10 μg/ml in triplicate. Additional concentrations are tested if required. 1 μl of DMSO is added to triplicate wells are the vehicle control. C75 is run at 10, and 5 μg/ml in triplicate as positive controls.
After 72 hours of incubation, cells are stained with 0.5 ml of Crystal Violet stain (0.5% in 25% methanol) in each well. After 10 minutes, wells are rinsed, air dried, and then solubilized with 0.5 ml 10% sodium dodecylsulfate with shaking for 2 hours. Following transfer of 100 μl from each well to a 96-well plate, plates are read at OD490 on a Molecular Devices SpectraMax Plus Spectrophotometer Average OD490 values are computed using SOFTmax Pro Software (Molecular Devices) and IC50 values are determined by linear regression analysis using Prism version 3.02 (Graph Pad Software, San Diego).

In assay [4] the target is rat liver acyl-CoA synthetase. The conditions noted are these: rat liver enzyme; read-out: 50% inhibition of rat liver acyl-CoA synthetase; cited from earlier work.
For another assay, the system named is Raji cells. The settings on record: cited from earlier work.
The test system of assay [5] is Mycobacterium tuberculosis. The settings on record: in vitro; cited from earlier work.
The next assay concerns the target HIV protease (Human immunodeficiency virus type 1 group M subtype B, UniProt P04585). The conditions noted are these: cited from earlier work.
A further assay can be described thus: Weight loss screen. Type of assay: in vivo, Balb/C mice. The settings on record: 60 mg/kg intraperitoneally, day 2. The method, then:
Balb/C mice (Jackson Labs) are utilized for the initial weight loss screening. Animals are housed in temperature and 12 hour day/night cycle rooms and fed mouse chow and water ad lib. Three mice are utilized for each compound tested with vehicle controls in triplicate per experiment. For the experiments, mice are housed separately for each compound tested three mice to a cage. Compounds are diluted in DMSO at 10 mg/ml and mice are injected intraperitoneally with 60 mg/kg in approximately 100 μl of DMSO or with vehicle alone. Mice are observed and weighed daily; average weights and standard errors are computed with Excel (Microsoft). The experiment continues until treated animals reach their pretreatment weights. Select compounds are tested in animals housed in metabolic cages. Dosing of animals are identical to the screening experiments with three animals to a single metabolic cage. Animal weights, water and food consumption, and urine and feces production are measured daily.

On to `CCCCCCCCNC(=O)c1cc(OCC(=O)OC)cs1`, for which the IC50 is 41.1 ± 2.6 µg/mL (≈ 126 µM) in assay [1], 55 µg/mL (≈ 168 µM) in the assay with OV, 15.8 µg/mL (≈ 48.3 µM) in [2] and 43.4 µg/mL (≈ 133 µM) in assay [3]. Besides, the “FAS (IC50) (SB)” value on FAS was “Neg (SB)”.
As to `O=C(NNc1ccc(Cl)cc1)c1cc(O)cs1`, the IC50 in [1] is 56.9 µg/mL (≈ 212 µM); against FAS, 510 µM; in the assay with OV, 30 µg/mL (≈ 112 µM).
`CCCC=CCC=CC=CC=NN=NO` [Triacsin C, 1-hydroxy-3-(E, E, E-2′,4′,7′-undecatrienylidine) triazene]: in assay [4], the IC50 was 8.7 µM. In the assay with Raji cells, the “concentration causing growth inhibition in Raji cells” value was 1.0 µM.
As for `C/C=C/C/C=C/CCC(=O)[C@H]1O[C@H]1C(N)=O` [cerulenin, (2S,3R)-2,3-epoxy-4-oxo-7,10 dodecadienoyl amide], in [5], the “activity against Mycobacterium tuberculosis” value was “no activity”. For the same molecule, at HIV protease, the “concentration for inhibition of viral HIV protease” value is 5 mg/mL.
Consider `O=C(NNC(=O)c1cc(O)cs1)c1ccco1`, for which the figures for the IC50 (in assay [1]; at FAS; in the assay with OV) were > 80 µg/mL, 135 µM and > 80 µg/mL, respectively. Besides, in the assay “Weight loss screen”, the “Weight Loss” value is 60 mg/kg: 1.5% (day 2).
